# Measured values reported in patent US8551997B2, “Structural-based inhibitors of the glutathione binding site in aldose reductase, methods of screening therefor and methods of use” (The Board of Regents of the University of Texas System, priority 2004, dated 2013).
# Assays:
# [1] = tested on: rat VSMC cells; assay: High glucose-induced TNF-a production in VSMC; type: cell-based; settings: for high glucose-induced TNF-a secretion: preincubated 1 h, then 19.5 mM glucose, apocyanin 25 mM, calphostin C 0.2 mM, N-acetyl cysteine 10 mM, sorbinil or tolrestat 10 mM each, or AR antisense ablated
# Procedure: Growth-arrested VSMC in 5.5 mM glucose (NG) were preincubated for 1 h without or with apocyanin (25 mM), D609 (100 mM), calphostin C (0.2 mM), N-acetyl cysteine (10 mM) and NF-kB inhibitor (18 mM) (FIG. 4A) and without or with sorbinil or tolrestat (10 mM each) (FIG. 4B) followed by the addition of glucose (19.5 mM) and incubation for the indicated times. AR antisense ablated VSMC were incubated with HG for the indicated times (FIG. 4C).
# Growth-arrested VSMC in 5.5 mM glucose (NG) were preincubated for 1 h without or with apocyanin (25 mM), D609 (100 mM), calphostin C (0.2 mM), N-acetyl cysteine (10 mM) and NF-kB inhibitor (18 mM) respectively, followed by the addition of 19.5 mM glucose, after which the cells were incubated for 12 and 24 hrs.
# [2] = tested on: Caco-2 cells; assay: PGE2 assay in Caco-2 cells; type: cell-based, human; settings: preincubation with inhibitor 30 min, BFGF or PDGF 24 h
# Procedure: (§1) Caco-2 cells were plated in 6 well plates at a density of 2×10^5 cells/well. After 24 hours, the medium was replaced with fresh medium containing 0.1% serum with or without, sorbinil (20 μM) followed by treatment with either 10 ng/ml BFGF or PDGF, for another 24 h. HT29 cells were plated in 6 well plate at a density of 2×10^5 cells/well. After 24 hours, medium was replaced with serum-free medium with or without, sorbinil or zopolrestat (20 μM) followed by treatment with either EGF (5 ng/ml) or BFGF (10 ng/ml) for another 24 h. The medium from each cell lines was collected from each well and analyzed for PGE2 by using an Enzyme Immuno Assay kit according to the manufacturer's instructions (Cayman Chemical Co., Inc.).
# (§2) Briefly, 50 μl of diluted standard/sample were pipetted into a pre-coated goat polyclonal anti-mouse IgG 96-well plate. Aliquots (50 μl) of a PGE2 monoclonal antibody and PGE2 acetylcholine esterase (AchE) conjugate, (PGE2 tracer) were added to each well and allowed to incubate at 4° C. for 24 h. After incubation, the wells were washed five times with wash buffer containing 0.05% Tween-20, followed by the addition of 200 μl of Ellman's reagent containing acetylthiocholine and 5,5′-dithio-bis-(2-nitrobenzoic acid). Samples were read after 60 min at 412 nm with an ELISA reader. In this procedure the intensity of yellow color, is proportional to the amount of PGE2 tracer bound to the well and is inversely proportional to the amount of free PGE2 present in the well during incubation.
# [3] = target: aldose reductase (Homo sapiens, UniProt P15121); settings: cited from earlier work
# [4] = tested on: A549 cells; assay: A549 cell proliferation, MTT assay; type: cell-based; settings: Homo sapiens, 24 hrs
# Procedure: A549 cells were grown to confluence in Ham's F12K medium containing 10% FBS and harvested, and plated at 5000 cells per well in a 96-well plate. After 24 hrs A549 cells were treated with or without AR inhibitor sorbinil or tolrestat with various concentrations for another 24 hrs. Cells incubated without AR inhibitors served as control. Cell viability was determined by and MTT assay.
# [5] = tested on: A549 cells; assay: Western blot of Cox-2 and iNOS in A549 cells; type: cell-based, human; settings: concentration dependent
# Procedure: (§3) To examine expression of any of Cox-1, Cox-2, phospho-PKC-2, GAPDH, E2F1, Cyclin D1, Cyclin E, and iNOS proteins, Western blot analyses were carried by known methods (15). Equal amounts of protein from cell extracts were subjected to 12% SDS-PAGE followed by transfer of proteins to nitrocellulose filters, probing with the indicated antibodies, and the antigen-antibody complex was detected by enhanced chemiluminescence (Pierce, Piscataway, N.J., USA).
# [6] = tested on: A549 cells; assay: Western blot of cell cycle regulatory proteins in A549 cells; type: cell-based, human; settings: various concentrations
# Procedure: as §3
# [7] = tested on: Caco-2 cells; assay: Reactive oxygen species in Caco-2 cells (DCFH-DA); type: cell-based, human; settings: 20 μM, FGF or PDGF 10 ng/ml 60 min
# Procedure: Caco-2 cells were plated in a 24-well plate at a density of 1.5×10^4 cells/well in DMEM and then serum-starved at 60-70% confluence in the absence and presence of 20 μM sorbinil or tolrestat for overnight in phenol red-free DMEM supplemented with 0.1% FBS. Cells were then pre-incubated for 30 min with the ROS-sensitive fluorophore 2′,7′-dichlorofluorescein diacetate (DCFH-DA), which is taken up and oxidized to the fluorescent dichlorofluorescein by intracellular ROS. After incubation with DCFH-DA, the cells were exposed to FGF or PDGF 10 ng/ml for 60 min and fluorescence was measured with a CytoFluorII fluorescence plate reader (PerSeptive Biosystems, Inc., Framingham, Mass.) at excitation of 485 nm and emission of 528 nm.
# [8] = tested on: RAW264.7 macrophages; assay: LPS- and lipid aldehyde-induced signaling in RAW264.7 macrophages; type: cell-based
# Procedure: At the indicated times, cells were harvested for measurement of HNE (FIG. 5A), protein-HNE adducts (FIG. 5B), NF-kB (FIG. 5C), and TNF-a and IL-6 (FIG. 5D) as described in the methods. Cells were growth arrested as described above or transfected with control or AR siRNA oligonucleotides, incubated with GS-HNE-ester, or GS-DHN-ester (1 mM), and harvested for determination of NF-kB (FIG. 5E), membrane-bound total PKC (FIG. 5F).
# To determine if GS-DHN serves as a cellular sensor of ROS-induced insults, its effects on phosphorylation events upstream of IKK/NF-κB activation in RAW264.7 macrophages was examined.
# [9] = tested on: HT29 cells; assay: HT29 cell proliferation, MTT assay; type: cell-based; settings: inhibitor alone
# Procedure: HT29 cells were grown to confluence in McCoy's medium and harvested and plated 2,500 per well in a 96-well plate. Subconfluent cells were growth arrested in 0.1% FBS with or without AR inhibitor sorbinil or zopolrestat (20 μM). After 24 hours, EGF (5 ng/ml) or BFGF (10 ng/ml) was added to the medium and the cells were incubated for another 24 hours. Cells incubated with the AR inhibitors alone served as control. Cell viability was determined by an MTT assay.
# [10] = tested on: HT29 cells; assay: PGE2 assay in HT29 cells; type: cell-based; settings: inhibitor alone
# Procedure: as §1
# as §2, with “In this procedure the intensity of yellow color, is proportional to the amount of PGE2 tracer bound to the well and is inversely proportional to the amount of free PGE2 present in the well during incubation.” left out
# [11] = tested on: A549 xenografts; assay: A549 xenografts in nude mice; type: in vivo, mouse
# Procedure: The levels of ROS in sections of A549 xenografts was determined using dihydroethidium (Het; Molecular Probes, Eugene, Oreg.). The Het dye gives red fluorescence when oxidized to EtBr in the presence of ROS such as O2. Serial sections ([…]) of para-formaldehyde fixed xenografts were deparafinized and rehydrated and incubated with Het dye (5 μM in PBS) for 30 min at 37° C. followed by acquisition of images using a fluorescence microscope 200× magnification.
# Nine mice (20 weeks old) were divided into three groups of three animals and were treated with PBS, scrambled AR siRNA, and AR-siRNA, respectively. All nine animals were injected with 2×10^6 A549 human lung carcinoma cell suspensions in 100 μl PBS s.c. Animals were examined daily for signs of tumor growth. Treatment was given two times (day 1 and day 14) when the tumor surface area approximately 45 mm^2 (day 25). Treatment consisted of 200 μg AR-siRNA in 100 μl PBS. Control groups were treated with 200 μg/100 μl scrambled siRNA or diluent (PBS) alone. For the determination of effect of AR inhibitor, animals were fed with zopolrestat (40 mg/kg body weight) in the diet. Tumors were measured in two dimensions using calipers.
# Serial sections ([…]) of para-formaldehyde fixed xenografts were deparafenized and rehydrated and incubated with peptide specific AR antibodies and developed using DakoCytomation LSAB+System-HRP kit. The intensity of staining was observed under light microscope with 200× magnification.
# The results obtained from in vitro studies were confirmed by in vivo nude mice model bearing human lung carcinoma A549 cells. A549 (2×10^6) cells were implanted s.c. and allowed to grow in nu/nu nude mice to ˜45 mm^2 over a period of 25 days. Animals were grouped into control and experimental groups. Control group were fed with regular diet and experimental group was fed with AR inhibitor, Zopolrestat (after 10 days dose increased from 20 mg to 40 mg/kg/body weight) for until end of the experiment. Tumor growth was measured every two days using calipers. The photographs of animals were taken at days 1, 14, and 37 (FIGS. 20A-20B).
# [12] = tested on: SW480 xenografts; parameters: tumor progression: dose or concentration left out as unconfirmed
# Procedure: Nine 20-weeks-old athymic nu/nu nude mice were divided into three groups of 3 animals (Group 1: treated with PBS; Group 2: treated with scrambled siRNA and Group 3: treated with aldose-reductase siRNA). An aliquot of 2×10^6 SW480 human colon adenocarcinoma cell suspensions in 100 μl PBS was injected subcutaneously into one flank of each nu/nu nude mouse. Animals were examined daily for signs of tumor growth. Treatment was administered when the tumor surface area exceeded 45 mm^2, i.e., day 25. Treatment consisted of 200 mg aldose-reductase siRNA in 100 ml PBS administered intraperitoneally. Control groups were treated with 200 mg/100 ml scrambled siRNA, or diluent (PBS) alone. Mice were treated on days 1 and 14. Tumors were measured in two dimensions using calipers over 40 days.
# [13] = compared to control and scrambled siRNA
molecule,measurement,setting,value
calphostin C,high glucose-induced TNF-a secretion,[1],markedly decreased
same,growth factor-induced production of PGE2,[2],attenuated
"N[C@@H](CCC(=O)N[C@@H](CSC(CC(=O)O)C(=O)O)C(=O)NCC(=O)O)C(=O)O (stereo partly drawn) [DCEG, S-(1,2-dicarboxyethyl) glutathione, γ-glutamyl-S-(1,2-dicarboxyethyl)cysteinylglycine]",inhibition of AR-catalyzed reaction of glutathionyl-propanal,[3],competitive inhibitor
same,inhibition of aldehyde reduction by aldose reductase,[3],competitive inhibitor
COc1ccc2c(C(=S)N(C)CC(=O)O)cccc2c1C(F)(F)F [tolrestat],basal levels of TNF-a,"[1]; media containing 5.5 mM glucose, mannitol, or 3-OMG",did not affect
same,high glucose-induced TNF-a secretion,[1],prevents
same,inhibition at 100 µM,[4],> 75%
same,Cox-2 and iNOS expression,[5],inhibit
same,"E2F-1, Cyclin E and Cyclin D1 expression",[6],significant inhibition
same,growth factor-induced increase in ROS,[7],inhibited
"glutathionyl-1,4-dihydroxynonene [GS-DHN]",increase of protein kinase C (PKC) activity after GS-DHN challenge,[8]; within 60 min,~2.5 fold
"O=C(O)Cc1nn(Cc2nc3cc(C(F)(F)F)ccc3s2)c(=O)c2ccccc12 [zopolrestat, 3,4-dihydro-4-oxo-3-[[5-(trifluoromethyl)-2-benzothiazolyl]methyl]-1-phthalazineacetic acid]",HT29 cells proliferation,[9],did not cause any effect
same,constitutive levels of PGE2,[10],did not inhibit
same,normal weight gain of animals,[11]; zopolrestat in the diet,None of the treatments interfered
same,tumor progression,"[11]; zopolrestat in the diet, 20 mg to 40 mg/kg/body weight",completely arrested
AR-siRNA: AR-siRNA (5′-AATCGGTGTCTCCAACTTCAA-3′; SEQ ID NO: 1) synthesized by Dharmacon Research (chemistry not given here),ability of GS-DHN to activate NF-κB,[8],had no effect
same,effects of HNE/GS-HNE on IKK-a/b phosphorylation and NF-kB translocation,[8],significantly blunted
same,AR protein expression in xenograft sections,[11]; [13],significantly prevention
same,ROS production in xenograft sections (HEt red fluorescence),[11]; [13],significantly reduced
same,progression of tumor growth,[11]; i.p. 200 μg AR-siRNA in 100 μl PBS on days 1 and 14,inhibited completely
same,tumor progression,"[12]; intraperitoneally, days 1 and 14",completely arrested
same,normal weight gain of animals,"[12]; mouse, in vivo",without interfering
CC(=O)N[C@@H](CS)C(=O)O [N-acetylcysteine],growth factor-induced production of PGE2,[2],attenuated
